The subject of the test is S. epidermidis NCIB 11536. In words: Antibiotic disc sensitivities of the producer strain. It counts as cell-based. As to conditions: for Sensitive to: Amount of antibiotic/disc: strain sensitive at this disc content.

On to gentamycin, for which the “Sensitive to: Amount of antibiotic/disc” value was found to be 10 µg. In the case of `CC1(C)S[C@@H]2[C@H](NC(=O)Cc3ccccc3)C(=O)N2[C@H]1C(=O)O` [penicillin G], the “Sensitive to: Amount of antibiotic/disc” value is reported as 1 unit. For `CO[C@@H]1[C@@H](OC(N)=O)[C@@H](O)[C@H](Oc2ccc3c(O)c(NC(=O)c4ccc(O)c(CC=C(C)C)c4)c(=O)oc3c2C)OC1(C)C` [novobiocin], the Novobiocin sensitivity result (5 μg disc) is “sensitive”.

The values are drawn from patent US4588692A, “Antibiotic compounds, process for the preparation and pharmaceutical compositions thereof, methods of treatment therewith and Staphylococcus bacteria” (priority 1979, dated 1986).
